Measured values: patent US20110039721A1, “METHOD FOR PREDICTION ABOUT CARCINOGENICITY OF SUBSTANCE IN RODENT” (Chemicals Evaluation and Research Institute, priority 2007, published 2011)

How the values were obtained:
[1] = tested on: mRNA expressed from the genes (A) to (D) in rat liver; assay: Behavior of genes (mRNA expression level, oligo-DNA microarray) in rat liver after 28-day oral administration; format: in vivo
Summary of the method: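 Male F344 SPF rats, 5 weeks old, four per group, received carcinogens, non-carcinogens or solvent vehicle by oral gavage once daily for 28 days. Liver total RNA was then extracted. Changes of ≥1.5-fold or ≤1/1.5 versus vehicle control, in a consistent direction across carcinogens, counted as significant.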

[2] = tested on: liver; conditions: classification of the substance (Cr+/Cr−); cited from earlier work
[3] = tested on: rodent; conditions: classification of the substance (C+/C−); cited from earlier work
[4] = classification of the substance (M+/M−); cited from earlier work
[5] = gene group (A), Unigene No. Rn.167075
[6] = gene group (C), Unigene No. Rn.120914

Q: With `Nc1cc([N+](=O)[O-])ccc1C(=O)O` [TS082, 4-Nitroanthranilic acid] as the compound, how does the “Behavior of gene caused by administration of chemical substance, Gene No. 4846” value ([1]; gene group (A), Unigene No. Rn.144554) read?
A: −

Q: And the “Behavior of gene caused by administration of chemical substance, Gene No. 2026” value [1, 5]?
A: −

Q: What about the “Behavior of gene caused by administration of chemical substance, Gene No. 4218” value [1, 5] of the same compound?
A: −

Q: And the “Behavior of gene caused by administration of chemical substance, Gene No. 6182” value ([1]; gene group (A), Unigene No. Rn.5834)?
A: +

Q: What about the “Behavior of gene caused by administration of chemical substance, Gene No. 5600” value ([1]; gene group (A), Unigene No. Rn.9836) of the same compound?
A: −

Q: What about the “Behavior of gene caused by administration of chemical substance, Gene No. 1494” value ([1]; gene group (B), Unigene No. Rn.1430) of the same compound?
A: +

Q: What about the “Behavior of gene caused by administration of chemical substance, Gene No. 2045” value ([1]; gene group (B), Unigene No. Rn.19329) of the same compound?
A: −

Q: What about the “Behavior of gene caused by administration of chemical substance, Gene No. 2203” value ([1]; gene group (B), Unigene No. Rn.21240) of the same compound?
A: −

Q: What about the “Behavior of gene caused by administration of chemical substance, Gene No. 533” value ([1]; gene group (C), Unigene No. Rn.106184) of the same compound?
A: +

Q: And the “Behavior of gene caused by administration of chemical substance, Gene No. 725” value ([1]; gene group (C), Unigene No. Rn.108075)?
A: −

Q: And the “Behavior of gene caused by administration of chemical substance, Gene No. 1163” value ([1]; gene group (C), Unigene No. Rn.11766)?
A: −

Q: And the “Behavior of gene caused by administration of chemical substance, Gene No. 4973” value ([1]; gene group (C), Unigene No. Rn.118529)?
A: +

Q: And the “Behavior of gene caused by administration of chemical substance, Gene No. 4095” value ([1]; gene group (C), Unigene No. Rn.119024)?
A: +

Q: And the “Behavior of gene caused by administration of chemical substance, Gene No. 1334” value [1, 6]?
A: −

Q: And the “Behavior of gene caused by administration of chemical substance, Gene No. 6620” value [1, 6]?
A: −

Q: What about the “Behavior of gene caused by administration of chemical substance, Gene No. 6303” value ([1]; gene group (C), Unigene No. Rn.123063) of the same compound?
A: +

Q: And the “Behavior of gene caused by administration of chemical substance, Gene No. 5878” value ([1]; gene group (C), Unigene No. Rn.143213)?
A: −

Q: And the “Behavior of gene caused by administration of chemical substance, Gene No. 1131” value ([1]; gene group (C), Unigene No. Rn.144946)?
A: +

Q: What about the “Behavior of gene caused by administration of chemical substance, Gene No. 1562” value ([1]; gene group (C), Unigene No. Rn.14744) of the same compound?
A: +

Q: And the “Behavior of gene caused by administration of chemical substance, Gene No. 1741” value ([1]; gene group (C), Unigene No. Rn.1647)?
A: +

Q: And the “Behavior of gene caused by administration of chemical substance, Gene No. 893” value ([1]; gene group (C), Unigene No. Rn.164817)?
A: +

Q: What about the “Behavior of gene caused by administration of chemical substance, Gene No. 6026” value ([1]; gene group (C), Unigene No. Rn.167685) of the same compound?
A: −

Q: What about the “Behavior of gene caused by administration of chemical substance, Gene No. 154” value ([1]; gene group (C), Unigene No. Rn.185941) of the same compound?
A: +

Q: What about the “Behavior of gene caused by administration of chemical substance, Gene No. 1993” value ([1]; gene group (C), Unigene No. Rn.18728) of the same compound?
A: +

Q: What about the “Behavior of gene caused by administration of chemical substance, Gene No. 813” value ([1]; gene group (C), Unigene No. Rn.201760) of the same compound?
A: −

Q: What about the “Behavior of gene caused by administration of chemical substance, Gene No. 2494” value ([1]; gene group (C), Unigene No. Rn.23969) of the same compound?
A: −

Q: What about the “Behavior of gene caused by administration of chemical substance, Gene No. 2546” value ([1]; gene group (C), Unigene No. Rn.24561) of the same compound?
A: +

Q: What about the “Behavior of gene caused by administration of chemical substance, Gene No. 3776” value ([1]; gene group (C), Unigene No. Rn.43232) of the same compound?
A: +

Q: And the “Behavior of gene caused by administration of chemical substance, Gene No. 3929” value ([1]; gene group (C), Unigene No. Rn.4620)?
A: +

Q: What about the “Behavior of gene caused by administration of chemical substance, Gene No. 1119” value ([1]; gene group (C), Unigene No. Rn.9757) of the same compound?
A: +

Q: What about the “Behavior of gene caused by administration of chemical substance, Gene No. 6742” value ([1]; gene group (C), Unigene No. Rn.9779) of the same compound?
A: +

Q: And the “Behavior of gene caused by administration of chemical substance, Gene No. 5634” value ([1]; gene group (C), Unigene No. Rn.9862)?
A: +

Q: What about the “Behavior of gene caused by administration of chemical substance, Gene No. 5726” value ([1]; gene group (D), Unigene No. Rn.9939) of the same compound?
A: −

Q: What about the Liver carcinogenicity [2] of the same compound?
A: Cr−

Q: What about the Carcinogenicity [3] of the same compound?
A: C−

Q: What about the “Mutagenicity by Ames test” value [4] of the same compound?
A: M+
